Laboratory results: PMC1197287 (PLoS Biology, 2005)

Columns and labels:
CoV M^pros = format: biochemical
IBV M^pro = IBV M^pro (Avian infectious bronchitis virus, UniProt P0C6Y3); assay: biochemical
FIPV M^pro = FIPV M^pro (Feline coronavirus, UniProt Q98VG9); assay: biochemical; conditions: pH 7.3, read-out: kobs/[I]
MHV M^pro = MHV M^pro (Murine coronavirus, UniProt P0C6X9); assay: biochemical; conditions: pH 7.3, read-out: kobs/[I]
HCoV-229E M^pro = biological target: T1, HCoV-229E M^pro (Human coronavirus 229E, UniProt P0C6X1); assay: biochemical
T1 construct: HCoV-229E M^pro (15 mg/ml; two amino acids deleted at C-terminal); made in house

TGEV M^pro = TGEV M^pro (Porcine transmissible gastroenteritis coronavirus, UniProt P0C6Y5); assay: biochemical
M^pro of HCoV-NL63 = M^pro of HCoV-NL63 (Human coronavirus NL63, UniProt P0C6X5); format: biochemical
DBT cells = assay: Cytotoxicity assay (MTT); format: cell-based, murine; conditions: 500 μM, two days
Experimental: DBT cells were suspended in growth medium in 96-well plates. The next day, appropriate concentrations of the inhibitor were added to the medium. Two days later, the relative numbers of surviving cells were measured by MTT (Sigma, St. Louis, Missouri, United States) assay in accordance with the manufacturer's instructions.

SARS-CoV = conditions: cell-based assays; data to be published elsewhere
TGEV = assay: Cell-based assay of TGEV replication; conditions: cell-based assays; data to be published elsewhere
SARS-CoV M^pro = SARS-CoV M^pro (Severe acute respiratory syndrome coronavirus, UniProt P0C6X7); assay: biochemical
HCoV-229E = assay: microbe, parasite or virus in culture; format: cell-based; conditions: Human coronavirus 229E, MRC5, 14 h
M^pro of HCoV-HKU1 = M^pro of HCoV-HKU1 (Human coronavirus HKU1, UniProt P0C6X2); format: biochemical
MHV-A59 [1] = assay: organism not typed; format: cell-based; conditions: 14 h
FIPV = assay: microbe, parasite or virus in culture; format: cell-based, FIPV (strain 79–1146); conditions: Alphacoronavirus 1, 14 h
MHV-A59 [2] = assay: MHV-A59 plaque-reduction assay in DBT cells; format: cell-based
Experimental: Murine DBT cells (generously provided by Dr. Lishan Su of University of North Carolina) were cultured in Dulbecco's modified Eagle's medium supplemented with 10% fetal bovine serum (FBS) and antibiotics at 37 °C in 5% CO2.
DBT cells were suspended in growth medium in triplicate wells in 6-well plates and preincubated with appropriate concentrations of the inhibitor. The next day, the medium was aspirated, and MHV-A59 was added to each well at a titer of 100 PFU/well. After incubation for 1 h, the virus inoculum was aspirated, and 2 ml of a media-agar overlay with appropriate concentrations of inhibitor was added to each well. The plates were further incubated for 24 h and stained with neutral red to visualize plaques.

[3] = parameters: method as in PMID 14638501, PMID 11796347; conditions: cited from earlier work
rhinovirus = tested on: rhinovirus; parameters: method as in PMID 14638501, PMID 11796347; conditions: intranasal suspension; cited from earlier work
[4] = parameters: method as in PMID 14638501, PMID 11796347; conditions: in animals; cited from earlier work
[5] = parameters: method as in PMID 14638501, PMID 11796347; conditions: cited from earlier work; remark: listed apart in the source
CoVs = conditions: cited from earlier work

Sequence of IBV M^pro (P0C6Y3 2782-3088): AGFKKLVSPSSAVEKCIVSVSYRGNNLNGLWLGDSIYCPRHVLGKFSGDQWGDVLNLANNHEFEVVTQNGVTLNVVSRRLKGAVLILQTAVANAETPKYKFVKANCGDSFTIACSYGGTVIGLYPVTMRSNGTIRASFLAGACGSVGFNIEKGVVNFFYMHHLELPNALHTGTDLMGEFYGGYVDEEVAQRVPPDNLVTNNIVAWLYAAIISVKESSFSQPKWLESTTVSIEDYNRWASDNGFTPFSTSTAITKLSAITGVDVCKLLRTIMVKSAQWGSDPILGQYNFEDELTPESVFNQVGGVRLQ
T1 sequence (P0C6X1 2966-3265 limits assumed): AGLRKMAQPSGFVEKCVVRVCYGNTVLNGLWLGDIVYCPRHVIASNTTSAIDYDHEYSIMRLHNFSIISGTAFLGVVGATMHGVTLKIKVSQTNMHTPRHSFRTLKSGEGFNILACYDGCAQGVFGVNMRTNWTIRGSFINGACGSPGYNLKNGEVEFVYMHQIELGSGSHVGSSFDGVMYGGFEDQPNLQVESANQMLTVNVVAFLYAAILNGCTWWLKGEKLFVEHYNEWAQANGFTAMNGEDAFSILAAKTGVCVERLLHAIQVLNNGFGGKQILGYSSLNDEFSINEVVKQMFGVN
Sequence of TGEV M^pro (P0C6Y5 2879-3180): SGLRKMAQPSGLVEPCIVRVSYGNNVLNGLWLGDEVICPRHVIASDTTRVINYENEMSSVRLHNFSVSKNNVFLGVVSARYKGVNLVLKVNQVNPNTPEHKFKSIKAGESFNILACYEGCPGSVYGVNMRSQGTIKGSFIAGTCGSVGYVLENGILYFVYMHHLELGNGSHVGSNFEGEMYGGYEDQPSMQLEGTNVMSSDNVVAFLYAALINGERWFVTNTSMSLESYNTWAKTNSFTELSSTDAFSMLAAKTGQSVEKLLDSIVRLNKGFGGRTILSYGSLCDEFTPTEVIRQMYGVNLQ
Sequence of FIPV M^pro (Q98VG9 2904-3205): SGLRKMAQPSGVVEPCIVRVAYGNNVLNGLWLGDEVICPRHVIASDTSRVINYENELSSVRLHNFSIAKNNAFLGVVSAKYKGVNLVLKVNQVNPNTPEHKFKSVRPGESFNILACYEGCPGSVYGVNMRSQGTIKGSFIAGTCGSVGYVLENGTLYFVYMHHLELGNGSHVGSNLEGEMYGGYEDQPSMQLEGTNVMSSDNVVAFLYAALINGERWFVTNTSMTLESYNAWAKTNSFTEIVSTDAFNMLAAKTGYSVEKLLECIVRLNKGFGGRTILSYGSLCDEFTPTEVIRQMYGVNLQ
Sequence of MHV M^pro (P0C6X9 3334-3635): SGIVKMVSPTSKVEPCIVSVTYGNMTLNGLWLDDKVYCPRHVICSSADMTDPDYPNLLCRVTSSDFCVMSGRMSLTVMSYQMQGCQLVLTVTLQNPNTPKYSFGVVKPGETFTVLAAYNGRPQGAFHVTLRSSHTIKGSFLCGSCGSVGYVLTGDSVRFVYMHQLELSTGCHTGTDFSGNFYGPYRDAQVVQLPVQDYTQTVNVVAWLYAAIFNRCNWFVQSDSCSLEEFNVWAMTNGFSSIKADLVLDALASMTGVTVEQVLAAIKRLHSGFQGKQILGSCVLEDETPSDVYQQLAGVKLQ
Sequence of M^pro of HCoV-NL63 (P0C6X5 2940-3242): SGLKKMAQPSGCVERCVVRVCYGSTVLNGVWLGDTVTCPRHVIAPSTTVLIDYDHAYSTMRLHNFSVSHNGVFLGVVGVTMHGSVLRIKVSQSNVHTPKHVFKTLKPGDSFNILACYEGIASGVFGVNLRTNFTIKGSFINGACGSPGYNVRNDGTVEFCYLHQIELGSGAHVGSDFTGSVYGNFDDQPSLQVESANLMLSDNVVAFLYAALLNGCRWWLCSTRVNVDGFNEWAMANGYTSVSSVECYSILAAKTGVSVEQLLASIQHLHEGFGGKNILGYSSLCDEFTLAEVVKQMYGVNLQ
Sequence of M^pro of HCoV-HKU1 (P0C6X2 3335-3637): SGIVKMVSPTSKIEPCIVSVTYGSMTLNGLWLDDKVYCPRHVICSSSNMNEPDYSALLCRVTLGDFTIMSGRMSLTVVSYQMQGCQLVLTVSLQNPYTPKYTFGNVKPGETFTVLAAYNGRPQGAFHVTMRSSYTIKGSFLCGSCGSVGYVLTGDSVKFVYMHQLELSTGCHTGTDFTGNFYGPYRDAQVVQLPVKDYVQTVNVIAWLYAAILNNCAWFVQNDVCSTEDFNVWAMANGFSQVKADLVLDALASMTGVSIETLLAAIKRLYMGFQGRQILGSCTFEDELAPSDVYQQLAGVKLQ

SMILES: CCOC(=O)/C=C/[C@H](C[C@@H]1CCNC1=O)NC(=O)[C@H](CC(C)C)NC(=O)[C@@H](NC(=O)[C@H](C)NC(=O)c1cc(C)on1)C(C)C [N1]
- in vitro inactivation of all CoV M^pros tested (CoV M^pros): fast in vitro inactivation
- k3, range over CoV M^pros (CoV M^pros): 4.1–50 × 10^−3s^−1
- Ki (CoV M^pros; read-out: Ki, range over CoV M^pros): 1.11 to 10.7 µM
- Ki (IBV M^pro): 3.9 ± 0.9 µM
- k3 (IBV M^pro; IBV M^pro, inactivation rate constant): 14.5 ± 1.2 × 10^−3s^−1
- kinact/KI (FIPV M^pro): 24000 M⁻¹ s⁻¹
- kinact/KI (MHV M^pro): 2800 M⁻¹ s⁻¹
- Ki (HCoV-229E M^pro): 1.11 ± 0.09 µM
- k3 (HCoV-229E M^pro): 14.8 ± 0.7 × 10^−3s^−1
- Ki (TGEV M^pro): 3.2 ± 0.2 µM
- k3 (TGEV M^pro): 50 ± 3 × 10^−3s^−1

SMILES: Cc1cc(C(=O)N[C@@H](C)C(=O)N[C@H](C(=O)N[C@@H](CC(C)C)C(=O)N[C@H](/C=C/C(=O)OCc2ccccc2)C[C@@H]2CCNC2=O)C(C)C)no1 [N3]
- in vitro inactivation of all CoV M^pros tested (CoV M^pros): fast in vitro inactivation
- kinact/KI (IBV M^pro; pH 7.3, read-out: kobs/[I]): 7900 M⁻¹ s⁻¹
- inhibition on M^pro of HCoV-NL63 (M^pro of HCoV-NL63): potent inhibition
- inhibition of cell growth (DBT cells): 28.3%
- inhibition of replication of SARS-CoV (SARS-CoV): strongly inhibit
- inhibition of replication of TGEV (TGEV): strongly inhibit
- kinact/KI (FIPV M^pro): 47000 M⁻¹ s⁻¹
- Ki (SARS-CoV M^pro): 9 ± 0.8 µM
- k3 (SARS-CoV M^pro): 3.1 ± 0.5 × 10^−3s^−1
- IC50 (HCoV-229E): 4 µM
- inhibition on M^pro of HCoV-HKU1 (M^pro of HCoV-HKU1): potent inhibition
- kinact/KI (MHV M^pro): 4800 M⁻¹ s⁻¹
- IC50 (MHV-A59 [1]): 2.7 µM
- Ki (HCoV-229E M^pro): 1.67 ± 0.18 µM
- k3 (HCoV-229E M^pro): 18.0 ± 1.1 × 10^−3s^−1
- IC50 (FIPV): 8.8 µM
- kinact/KI (TGEV M^pro; pH 7.3, read-out: kobs/[I]): 13000 M⁻¹ s⁻¹
- protection of DBT cells from MHV infection (MHV-A59 [2]; 8 μM N3): sufficiently protected
- EC50 (MHV-A59 [2]; DBT cells, low-multiplicity (MOI = 0.01)): 3.4 µM

SMILES: CCOC(=O)/C=C/[C@H](C[C@@H]1CCNC1=O)NC(=O)[C@@H](CC(=O)[C@@H](NC(=O)c1cc(C)on1)C(C)C)Cc1ccc(F)cc1 [Ruprintrivir, ruprintrivir]
- aqueous solubility [3]: poor
- effect of prophylaxis in Phase II studies (rhinovirus): reduced the proportion of subjects with positive viral cultures and viral titers
- oral bioavailability [4]: low
- most common adverse effects [5]: blood-tinged mucus and nasal passage irritation
- tolerability [5]: well tolerated
- inhibition of CoVs (CoVs): did not show inhibition
